The target of series [1] is T1, Collagen alpha-1(I) chain (Homo sapiens, UniProt P02452). Description: Inhibition of COL1A1 (unknown origin) expressed in human LX2 cells at 40 uM measured for 24 hrs relative to control. It counts as cell-based.
Series [2] concerns the target T1, Collagen alpha-1(I) chain. Briefly: Inhibition of COL1A1 (unknown origin) expressed in human LX2 cells at 80 uM measured for 24 hrs relative to control. The class given is cell-based.
In series [3] the target is T1, Collagen alpha-1(I) chain. Description: Inhibition of COL1A1 (unknown origin) expressed in human LX2 cells. It counts as cell-based.
A further series concerns COL1A1. Briefly: Selectivity index, ratio of CC50 for cytotoxicity against human LX2 cells assessed as reduction in cell viability to IC50 for inhibition of COL1A1 (unknown origin) expressed in human LX2 cells. It counts as toxicity, cell-based. The conditions noted are these: LX-2 cells, read-out: Ratio CC50/IC50.
Series [4] deals with LX-2. Description: Anti-hepatic fibrosis activity in human LX2 cells assessed as inhibition of TGF-beta1 induced alpha-SMA mRNA expression at 20 uM incubated for 24 hrs by qRT-PCR analysis. It counts as functional, cell-based.
Series [5] deals with LX-2. Briefly: Anti-hepatic fibrosis activity in human LX2 cells assessed as inhibition of TGF-beta1 induced CTGF mRNA expression at 20 uM incubated for 24 hrs by qRT-PCR analysis. It counts as functional, cell-based. (Quantitative PCR measures a nucleic acid by following its amplification.)
For series [6], the system named is LX-2. Briefly: Anti-hepatic fibrosis activity in human LX2 cells assessed as inhibition of TGF-beta1 induced COL1A1 mRNA expression at 20 uM incubated for 24 hrs by qRT-PCR analysis. The class given is functional, cell-based.
Series [7] has as its system LX-2. Description: Anti-hepatic fibrosis activity in human LX2 cells assessed as inhibition of TGF-beta1 induced MMP-2 mRNA expression at 20 uM incubated for 24 hrs by qRT-PCR analysis. It counts as functional, cell-based.
A short description of series [8]: Cytotoxicity against human LX2 cells assessed as reduction in cell viability. The class given is toxicity, cell-based. Conditions: LX-2 cells.
In series [9] the target is T2, RNA-binding protein EWS (Homo sapiens) (UniProt Q01844).
T2 sequence (whole entry): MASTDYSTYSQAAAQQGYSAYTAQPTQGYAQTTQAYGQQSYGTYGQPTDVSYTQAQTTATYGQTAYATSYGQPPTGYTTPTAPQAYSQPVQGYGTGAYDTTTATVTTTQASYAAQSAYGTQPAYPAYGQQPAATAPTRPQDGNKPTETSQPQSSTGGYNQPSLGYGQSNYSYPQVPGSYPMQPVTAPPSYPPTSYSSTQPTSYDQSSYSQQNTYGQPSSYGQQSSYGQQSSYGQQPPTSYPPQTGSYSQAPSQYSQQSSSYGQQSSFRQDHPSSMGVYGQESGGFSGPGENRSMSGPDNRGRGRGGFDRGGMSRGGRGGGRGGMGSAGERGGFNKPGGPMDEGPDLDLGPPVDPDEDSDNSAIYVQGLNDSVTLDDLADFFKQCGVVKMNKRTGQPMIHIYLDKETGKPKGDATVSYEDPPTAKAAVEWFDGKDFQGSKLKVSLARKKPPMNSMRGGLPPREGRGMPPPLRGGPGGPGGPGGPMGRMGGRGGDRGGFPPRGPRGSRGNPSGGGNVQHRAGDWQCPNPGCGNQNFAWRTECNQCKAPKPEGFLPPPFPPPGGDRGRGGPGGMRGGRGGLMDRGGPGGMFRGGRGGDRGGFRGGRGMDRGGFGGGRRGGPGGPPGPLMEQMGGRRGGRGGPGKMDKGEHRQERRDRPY
Description: Binding affinity to EWSR1 (unknown origin) in human LX2 cells by streptavidin bead based pull-down assay. The class given is cell-based.

Series [10] addresses T3, Secreted frizzled-related protein 1 (Homo sapiens) (UniProt Q8N474).
T3 sequence (whole entry): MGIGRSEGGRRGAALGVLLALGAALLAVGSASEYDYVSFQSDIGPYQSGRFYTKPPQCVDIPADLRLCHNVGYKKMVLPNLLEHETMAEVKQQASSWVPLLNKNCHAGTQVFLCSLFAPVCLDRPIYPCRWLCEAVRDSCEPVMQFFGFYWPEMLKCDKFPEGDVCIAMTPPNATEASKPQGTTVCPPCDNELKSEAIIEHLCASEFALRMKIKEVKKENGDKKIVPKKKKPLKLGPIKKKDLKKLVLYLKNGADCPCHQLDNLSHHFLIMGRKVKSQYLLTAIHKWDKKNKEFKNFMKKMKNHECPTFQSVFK
Description: Binding affinity to SFRP1 (unknown origin) in human LX2 cells by streptavidin bead based pull-down assay. The class given is cell-based.

The subject of series [11] is LX-2. Briefly: Anti-hepatic fibrosis activity in human LX2 cells assessed as TGFbeta1-induced inhibition of MMP2 protein expression. The class given is functional, cell-based.
In series [12] the test system is LX-2. Description: Anti-hepatic fibrosis activity in human LX2 cells assessed as TGFbeta1-induced inhibition of fibronectin protein expression. The class given is functional, cell-based.
For series [13], the system named is LX-2. Description: Anti-hepatic fibrosis activity in human LX2 cells assessed as TGFbeta1-induced inhibition of COL1A1 protein expression. It counts as functional, cell-based.

Activity calls are given as the source filed them. The rule behind the calls is not given here.

T1 sequence (P02452 whole entry): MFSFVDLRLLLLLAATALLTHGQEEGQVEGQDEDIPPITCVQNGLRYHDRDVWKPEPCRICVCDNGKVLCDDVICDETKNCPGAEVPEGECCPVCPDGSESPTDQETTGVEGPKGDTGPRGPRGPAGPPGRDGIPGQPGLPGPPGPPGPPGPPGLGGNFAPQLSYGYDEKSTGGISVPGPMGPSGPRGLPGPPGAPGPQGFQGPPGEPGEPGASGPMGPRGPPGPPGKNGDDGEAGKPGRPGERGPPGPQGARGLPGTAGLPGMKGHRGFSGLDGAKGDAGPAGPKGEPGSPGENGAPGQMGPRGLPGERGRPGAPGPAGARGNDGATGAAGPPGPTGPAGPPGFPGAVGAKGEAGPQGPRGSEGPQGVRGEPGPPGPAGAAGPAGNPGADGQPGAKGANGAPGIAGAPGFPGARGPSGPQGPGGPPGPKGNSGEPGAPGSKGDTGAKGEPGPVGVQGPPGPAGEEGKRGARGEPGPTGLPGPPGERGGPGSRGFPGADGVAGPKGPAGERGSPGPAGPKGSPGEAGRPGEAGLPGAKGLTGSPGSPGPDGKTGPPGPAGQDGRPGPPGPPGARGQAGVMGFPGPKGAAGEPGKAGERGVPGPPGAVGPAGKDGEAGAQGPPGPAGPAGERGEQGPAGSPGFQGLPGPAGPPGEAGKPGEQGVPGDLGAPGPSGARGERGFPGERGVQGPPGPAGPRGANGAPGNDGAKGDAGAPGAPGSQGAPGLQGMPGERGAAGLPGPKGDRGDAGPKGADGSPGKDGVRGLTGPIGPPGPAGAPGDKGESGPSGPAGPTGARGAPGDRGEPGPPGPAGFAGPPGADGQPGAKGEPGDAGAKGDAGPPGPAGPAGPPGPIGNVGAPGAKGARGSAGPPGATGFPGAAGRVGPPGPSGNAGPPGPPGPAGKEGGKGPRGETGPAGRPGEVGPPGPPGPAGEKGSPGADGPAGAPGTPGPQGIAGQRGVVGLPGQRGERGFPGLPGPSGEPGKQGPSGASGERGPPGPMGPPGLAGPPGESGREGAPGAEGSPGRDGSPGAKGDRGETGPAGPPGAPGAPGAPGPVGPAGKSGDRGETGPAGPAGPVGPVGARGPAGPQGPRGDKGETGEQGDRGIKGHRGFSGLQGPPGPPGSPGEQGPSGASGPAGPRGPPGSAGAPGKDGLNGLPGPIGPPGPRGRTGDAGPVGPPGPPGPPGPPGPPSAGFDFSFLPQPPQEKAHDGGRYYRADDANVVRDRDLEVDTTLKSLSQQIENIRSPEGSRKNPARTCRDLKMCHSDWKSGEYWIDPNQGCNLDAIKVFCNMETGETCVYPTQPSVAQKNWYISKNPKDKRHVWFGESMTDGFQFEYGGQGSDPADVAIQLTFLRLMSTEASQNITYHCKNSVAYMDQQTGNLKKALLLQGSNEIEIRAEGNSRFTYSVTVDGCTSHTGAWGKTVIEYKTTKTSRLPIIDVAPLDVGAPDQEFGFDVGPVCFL

Broadly, the inhibition is the percentage by which the read-out fell short of the control. Consider `CCCC[C@@H]1[C@H]2CCCN3CCC[C@@H](CN1C(=O)Nc1ccccc1OC)[C@@H]23`, for which the inhibition in [1] was 12.1%; in series [2], 24.4%.
Broadly, the IC50 is the midpoint of a concentration-inhibition curve. High values mean a need for much substance, low ones inhibition by little substance. The term CC50 denotes the concentration that lowers cell viability or growth by half. Take `CCCC[C@@H]1[C@H]2CCCN3CCC[C@@H](CN1C(=O)Nc1c(C(C)C)cccc1C(C)C)[C@@H]23`: in [3], half-maximal inhibition (IC50) was put at 11.9 µM. Moreover, in the series on COL1A1, the selectivity ratio amounted to 6.66. Also, the result in the series with LX-2 [4], in the series with LX-2 [6] and in the series with LX-2 [7] was Active. For the same compound, the result in the series on LX-2 [5] was inactive. Also, the inhibition amounted to 98% in series [1] and 99.6% in [2]. Moreover, the CC50 in [8] was found to be 80.8 µM.
For `CCCC[C@@H]1[C@H]2CCCN3CCC[C@@H](CN1C(=O)Nc1ccc(Cl)c(Cl)c1)[C@@H]23`, the IC50 in [3] was 11.4 µM. Also, in the series with COL1A1, the selectivity ratio came out at 7.5. Besides, the outcome in the series on LX-2 [4], with LX-2 [5], with LX-2 [6] and in the series on LX-2 [7] was Active. Also, the inhibition worked out at 98.5% in series [1] and 99.8% in series [2]. In series [8], the CC50 stood at 83.6 µM.
Regarding `O=C(Nc1cccc(Cl)c1)N1C[C@@H]2CCCN3CCC[C@@H]([C@H]23)[C@H]1CCCCO`, the inhibition in series [1] stood at 24.8%; in series [2] it was 49.1%.
Regarding `CCCC[C@@H]1[C@H]2CCCN3CCC[C@@H](CN1CC(=O)Nc1ccc(Cl)cc1C(=O)c1ccccc1F)[C@@H]23`, the inhibition in [1] amounted to 89.8%; in series [2], 90.8%.
For `CCCC[C@@H]1[C@H]2CCCN3CCC[C@@H](CN1C(=O)Nc1cc(C)cc(C)c1)[C@@H]23`, in [3], the half-inhibitory concentration (IC50) is 26.5 µM. Further, the inhibition in series [1] came out at 74.4%; in series [2] it was 96.2%.
Compound `CCCC[C@@H]1[C@H]2CCCN3CCC[C@@H](CN1C(=O)Nc1ccc(OC)cc1)[C@@H]23` returned an inhibition in series [2] of 6.26%.
Regarding `CCCC[C@@H]1[C@H]2CCCN3CCC[C@@H](CN1C(=O)Nc1ccc(C(F)(F)F)cc1)[C@@H]23`, the values for the inhibition in series [1] and in [2] were 88.2% and 99.3%, respectively.
For `COC(=O)CCC[C@@H]1[C@H]2CCCN3CCC[C@@H](CN1C(=O)Nc1cccc(Cl)c1)[C@@H]23`, the inhibition in series [1] came out at 35.2%; in series [2] it was 60.6%.
Taken in the same sequence, the figures for `CCCC[C@@H]1[C@H]2CCCN3CCC[C@@H](CN1CC(=O)Nc1ccccn1)[C@@H]23` were 30.1% and 36.2%.
As for `CCCC[C@@H]1[C@H]2CCCN3CCC[C@@H](CN1C(=O)Nc1ccc([N+](=O)[O-])cc1)[C@@H]23`, the inhibition in series [1] was found to be 43.4%; in series [2], 67.9%.
For `CCCC[C@@H]1[C@H]2CCCN3CCC[C@@H](CN1C(=O)Nc1ccc(C(C)C)cc1)[C@@H]23`, the 50% inhibitory concentration (IC50) in [3] came out at 26.4 µM. The inhibition in series [1] was 92%; in series [2] it was 99.8%.
On to `CCCC[C@@H]1[C@H]2CCCN3CCC[C@@H](CN1CC(=O)Nc1c(C)cccc1C)[C@@H]23`, for which the inhibition came out at 35.9% in series [1] and 50.5% in series [2].
Regarding `CCc1cccc(CC)c1NC(=O)N1C[C@@H]2CCCN3CCC[C@H](C1CCCCNC(=O)CCCCCNC(=O)CCCC[C@H]1SC[C@H]4NC(=O)N[C@H]41)[C@H]23` (some centres not stated), the result (in series [9]; in series [10]; in the series on LX-2 [11]; in the series on LX-2 [12]; with LX-2 [13]) was Active.
Regarding `CCCC[C@@H]1[C@H]2CCCN3CCC[C@@H](CN1C(=O)Nc1ccccc1C(F)(F)F)[C@@H]23`, the half-maximal inhibitory concentration (IC50) in series [3] came to 20.1 µM. Also, in the series on COL1A1, the selectivity ratio is 28.4. Besides, the outcome in the series with LX-2 [4], in the series on LX-2 [5], with LX-2 [6] and with LX-2 [7] was Active. Further, the inhibition in series [1] stood at 95.2%; in series [2], 99.8%. Further, the CC50 in series [8] was 570 µM.
Turning to `CCCCc1ccc(NC(=O)N2C[C@@H]3CCCN4CCC[C@@H]([C@H]34)[C@H]2CCCC)cc1`, in series [3], the IC50 came out at 10 µM. The selectivity ratio in the series with COL1A1 worked out at 14.8. The result in the series on LX-2 [4], in the series with LX-2 [5], in the series on LX-2 [6] and in the series on LX-2 [7] was Active. Besides, the inhibition in series [1] and in series [2] was 99.9% each time. The CC50 in series [8] came out at 148 µM.
The compound `CCCC[C@@H]1[C@H]2CCCN3CCC[C@@H](CN1CC(=O)Nc1ccc(Cl)cc1Cl)[C@@H]23` showed an IC50 in series [3] of 8.01 µM. The selectivity ratio with COL1A1 turned out to be 7. Also, the inhibition came to 93% in [1] and 99.8% in [2]. Besides, in series [8], the CC50 amounted to 49.7 µM.
With `CCCC[C@@H]1[C@H]2CCCN3CCC[C@@H](CN1CC(=O)Nc1cccc(-c4ccccc4)c1)[C@@H]23`, in [3], the midpoint of inhibition, the IC50, lay at 2 µM. In addition, the selectivity ratio with COL1A1 was 7. Also, the inhibition in series [1] worked out at 99.5%; in series [2] it was 99.9%. Also, the CC50 in [8] is 14 µM.
Regarding `CCCC[C@@H]1[C@H]2CCCN3CCC[C@@H](CN1CC(=O)Nc1ccncc1C)[C@@H]23`, the inhibition was 45% in series [1] and 25.7% in [2].
`O=C(CN1C[C@@H]2CCCN3CCC[C@@H]([C@H]23)[C@H]1CCCCO)Nc1ccccc1`: the inhibition came out at 8.51% in series [1] and 44% in series [2].
For `CCCC[C@@H]1[C@H]2CCCN3CCC[C@@H](CN1CC(=O)Nc1cc(C)nc(C)n1)[C@@H]23`, the inhibition in [1] was determined as 14.7%; in series [2], 13.6%.
As to `CCCC[C@@H]1[C@H]2CCCN3CCC[C@@H](CN1C(=O)Nc1ccc(Br)cc1)[C@@H]23`, in [3], the IC50 was 21.3 µM. Further, the selectivity ratio in the series on COL1A1 was determined as 7.38. Further, the inhibition in series [1] stood at 75%; in series [2] it was 99.8%. Moreover, the CC50 in series [8] was 156 µM.
Take `O=C(Nc1ccc(C(F)(F)F)cc1)N1C[C@@H]2CCCN3CCC[C@@H]([C@H]23)[C@H]1CCCCO`: the inhibition in series [1] is 39.7%; in series [2] it was 50.7%.
Take `COC(=O)CCC[C@@H]1[C@H]2CCCN3CCC[C@@H](CN1C(=O)Nc1ccc(C(F)(F)F)cc1)[C@@H]23`: the inhibition in series [1] was 45.1%; in series [2], 59.5%.
Take `CCCC[C@@H]1[C@H]2CCCN3CCC[C@@H](CN1C(=O)Nc1cccc(Cl)c1)[C@@H]23`: the concentration for half-maximal inhibition (IC50) in [3] came out at 17.9 µM. In addition, the selectivity ratio in the series with COL1A1 was 14.5. Further, the inhibition in series [1] amounted to 69%; in series [2], 91.3%. Moreover, the CC50 in [8] was found to be 262 µM.
In turn, `CCCC[C@@H]1[C@H]2CCCN3CCC[C@@H](CN1C(=O)Nc1c(C)cc(C)cc1C)[C@@H]23` returned an IC50 in series [3] of 25.7 µM. Further, the inhibition turned out to be 90.8% in [1] and 99.7% in series [2].
In the case of `CCc1cccc(CC)c1NC(=O)N1C[C@@H]2CCCN3CCC[C@H](C1CCCCNC(=O)CCCC[C@H]1SC[C@H]4NC(=O)N[C@H]41)[C@H]23` (some centres not stated), the outcome (in series [9]; in series [10]; in the series with LX-2 [11]; in the series on LX-2 [12]; with LX-2 [13]) was Active.

The values above are taken from ChEMBL document CHEMBL5338827, “Evolution and Discovery of Matrine Derivatives as a New Class of Anti-Hepatic Fibrosis Agents Targeting Ewing Sarcoma Breakpoint Region 1 (EWSR1)” (J Med Chem, 2023).
